Reference: US20140170237A1, “ANTIMICROBIAL COMPOSITIONS CONTAINING MIXTURES OF FATTY AND HYDROXYL CARBOXYLIC ACIDS” (priority 2012, published 2014)
“Also recorded” adds a separate entry of the source.

Assay: Cold solubility / 4 C storage of commercial fatty acids and their mixtures
Assay type: physicochemical
Settings: 1 day, no solvent or surfactant

With `CCCCCCCCCCCC(=O)O` [C12, dodecanoic] the “4 C. Storage, physical state” value was “solid or formed crystals; also recorded: Solid”.
